Data: patent US6337344B1, “Indole derivatives as inhibitors or factor Xa” (Aventis Pharma Deutschland GmbH, priority 1997, dated 2002)
Structures can show the parent of a compound that is named as a salt.

| Structure (SMILES) | melting point |
| --- | --- |
| COC(=O)c1cccc(CNC(=O)c2cc3c(O)cccc3n2Cc2cccc(C(=N)N)c2)c1 (as salt: trifluoroacetic acid salt) [Example 132] | 95 °C |
| C[N+](C)(Cc1ccccc1)c1ccc(CNC(=O)c2cc3cc(F)ccc3n2Cc2cccc(C(=N)N)c2)cc1.Cl.[Cl-] | 136 °C |
| CC(=O)O.CC(=O)[O-].C[N+](C)(C)c1ccc(CNC(=O)c2cc3cc(F)ccc3n2Cc2cccc(C(=N)N)c2)cc1 | 172 °C (dec.) |
| C[n+]1ccc(CNC(=O)c2cc3cc(N)ccc3n2Cc2cccc(C(=N)N)c2)cc1.O=C(O)C(F)(F)F.O=C(O)C(F)(F)F.O=C([O-])C(F)(F)F | 115 °C |
| COc1cccc2c1cc(C(=O)NCCc1ccncc1)n2Cc1cccc(/C(N)=N/O)c1.Cl.Cl | 215 to 217 °C |
| C=CC[N+](C)(C)c1ccc(CNC(=O)c2cc3cc(F)ccc3n2Cc2cccc(C(=N)N)c2)cc1.CC(=O)O.[Cl-] | 133 °C (dec.) |
| N=C(N)c1cccc(COC(=O)c2cc3ccccc3n2Cc2cccc(C(=N)N)c2)c1.O=C(O)C(F)(F)F.O=C(O)C(F)(F)F | 258 °C |
| COc1cccc2c1cc(C(=O)NCCc1ccc(O)cc1)n2Cc1cccc(/C(N)=N/O)c1 [Example 51, 1-(3-Hydroxyamidino-benzyl)-4-methoxy-1H-indole-2-carboxylic acid 2-(4-hydroxy-phenyl)-ethyl amide] | 173 to 175 °C (dec.) |
| CC(=O)O.C[C@@H](NC(=O)c1cc2cc(OCc3ccccc3)ccc2n1Cc1cccc(C(=N)N)c1)c1ccccc1 | 72 °C (dec.) |
| CC(=O)O.CC(=O)[O-].COc1ccc2c(c1)cc(C(=O)NCc1ccc([N+](C)(C)C)cc1)n2Cc1cccc(C(=N)N)c1 | 94 °C (dec.) |
| N=C(N)c1cccc(Cn2c(C(N)=O)cc3ccccc32)c1.O=C(O)C(F)(F)F | 278 °C (dec.) |
| N=C(N)c1ccc(Cn2c(C(=O)NCc3ccc(Cl)cc3)cc3ccccc32)cc1.O=C(O)C(F)(F)F | 268 °C (dec.) |
| COc1cccc2c1cc(C(=O)NCCc1cc[n+](C)cc1)n2Cc1cccc(C(=N)N)c1.O=C(O)C(F)(F)F.O=C([O-])C(F)(F)F | 164 °C (dec.) |
| CN(C)c1ccc(CNC(=O)c2cc3ccccc3n2Cc2cccnc2)cc1 | 108 to 110 °C |
| N=C(N)c1cccc(Cn2c(C(=O)NCCc3ccc(Cl)cc3Cl)cc3c(O)cccc32)c1.O=C(O)C(F)(F)F | 144 °C |
| Cc1cccc2c1cc(C(=O)NCc1ccc([N+](C)(C)C)cc1)n2Cc1cccc(C(=N)N)c1.O=C(O)C(F)(F)F.O=C([O-])C(F)(F)F [Example 35, [4-({[1-(3-Amidino-benzyl)-4-methyl-1H-indole-2-carbonyl]-amino}-methyl)-phenyl]-trimethyl-ammonium trifluoroacetate trifluoroacetic acid salt] | 81 °C (dec.) |
| C[N+](C)(C)c1ccc(CNC(=O)c2cc3cc(N)ccc3n2Cc2cccc(C(=N)N)c2)cc1.O=C(O)C(F)(F)F.O=C(O)C(F)(F)F.O=C([O-])C(F)(F)F | 114 °C (dec.) |
| N=C(N)c1ccc(Cn2c(C(=O)NC(c3ccccc3)c3ccncc3)cc3ccccc32)cc1.O=C(O)C(F)(F)F.O=C(O)C(F)(F)F (racemic) | 150 °C |
| C[N+](C)(C)c1ccc(CNC(=O)c2cc3cc(OCc4ccccc4)ccc3n2Cc2cccc(C(=N)N)c2)cc1.O=C(O)C(F)(F)F.O=C([O-])C(F)(F)F [Example 56, [4-({[5-Benzyloxy-1-(3-amidino-benzyl)-1H-indole-2-carbonyl]-amino}-methyl)-phenyl]-trimethyl-ammonium trifluoroacetate trifluoroacetic acid salt] | 60 °C (dec.) |
| N=C(N)c1cccc(Cn2c(C(=O)NCc3cc(Cl)cc(Cl)c3)cc3c(O)cccc32)c1 (as salt: trifluoroacetic acid salt) [Example 120] | 117 °C |
| COc1cccc2c1cc(C(=O)NC(c1ccccc1)c1cc[n+](C)cc1)n2Cc1cccc(C(=N)N)c1.O=C(O)C(F)(F)F.O=C([O-])C(F)(F)F (racemic) [Example 24, (RS)-4-({[1-(3-Amidino-benzyl)-4-methoxy-1H-indole-2-carbonyl]-amino}-phenyl-methyl)-1-methyl-pyridinium trifluoroacetate trifluoroacetic acid salt] | 135 °C |
| N=C(N)c1cccc(CNC(=O)c2cc3cc(O)ccc3n2Cc2cccc(C(=N)N)c2)c1.O=C(O)C(F)(F)F.O=C(O)C(F)(F)F | 125 °C (dec.) |
| COc1cccc2c1cc(C(=O)NCCc1ccncc1)n2Cc1cccc(/C(N)=N/O)c1 [Example 49, 1-(3-Hydroxyamidino-benzyl)-4-methoxy-1H-indole-2-carboxylic acid 2-(4-pyridyl)-ethyl amide] | 220 to 222 °C |
| CC(=O)O.CC(=O)O.Cc1cccc2c1cc(C(=O)OCc1cccc(C(=N)N)c1)n2Cc1cccc(C(=N)N)c1 | 53 °C (dec.) |
| C[N+](C)(C)c1ccc(CNC(=O)c2cc3cc(Cl)ccc3n2Cc2cccc(C(=N)N)c2)cc1.O=C(O)C(F)(F)F.O=C([O-])C(F)(F)F | 112 °C (dec.) |
| N=C(N)c1cccc(CNC(=O)c2cc3c(O)cccc3n2Cc2cccc(C(=N)N)c2)c1.O=C(O)C(F)(F)F.O=C(O)C(F)(F)F [Example 77, 1-(3-Amidino-benzyl)-4-hydroxy-1H-indole-2-carboxylic acid 3-amidino-benzylamide trifluoroacetic acid salt] | 128 to 131 °C |
| C#CC[N+](C)(C)c1ccc(CNC(=O)c2cc3cc(F)ccc3n2Cc2cccc(C(=N)N)c2)cc1.CC(=O)O.CC(=O)[O-] | 109 °C (dec.) |

| Structure (SMILES) | melting point |
| --- | --- |
| CC(=O)O.C[N+](C)(C)c1ccc(CNC(=O)c2cc3cc(S(C)(=O)=O)ccc3n2Cc2cccc(C(=N)N)c2)cc1.O=C([O-])C(F)(F)F | 70 °C (dec.) |
| Cl.N=C(N)c1ccc(Cn2c(C(=O)NCc3ccccc3)cc3ccccc32)cc1 | 266 to 268 °C (dec.) |
| COc1cccc2c1cc(C(=O)NC(c1ccccc1)c1ccncc1)n2Cc1cccc(C(=N)N)c1.O=C(O)C(F)(F)F.O=C(O)C(F)(F)F (racemic) | 105 °C |
| CC(=O)O.CC(=O)[O-].Cc1cccc2c1cc(C(=O)NCc1ccc([N+](C)(C)C)cc1)n2Cc1cccc(C(=N)N)c1 | 89 °C (dec.) |
| C[N+](C)(C)c1ccc(CNC(=O)c2cc3cc(F)ccc3n2Cc2cccc(C(=N)N)c2)cc1.O=C(O)C(F)(F)F.O=C([O-])C(F)(F)F | 120 to 124 °C |
| C[N+](C)(C)c1ccc(CNC(=O)c2cc3cc(O)ccc3n2Cc2cccc(C(=N)N)c2)cc1.O=C(O)C(F)(F)F.O=C([O-])C(F)(F)F | 78 °C (dec.) |
| CN(C)c1ccc(CNC(=O)c2cc3cc(Cl)ccc3n2Cc2cccc(/C(N)=N/O)c2)cc1 [Example 52, 1-(3-Hydroxyamidino-benzyl)-5-chloro-1H-indole-2-carboxylic acid (4-dimethylamino)-benzyl amide] | 200 °C (dec.) |
| CC(=O)O.CC(=O)[O-].C[N+](C)(C)c1ccc(CNC(=O)c2cc3c(Br)cccc3n2Cc2cccc(C(=N)N)c2)cc1 | 145 °C (dec.) |
| COc1cccc2c1cc(C(=O)NCCc1ccc(O)cc1)n2Cc1cccc(C(=N)N)c1.O=C(O)C(F)(F)F | 140 to 142 °C |
| Cc1cccc2c1cc(C(=O)NCc1ccc(N(C)C)cc1)n2Cc1cccc(C(=N)N)c1.O=C(O)C(F)(F)F.O=C(O)C(F)(F)F | 106 °C (dec.) |
| CN(C)c1ccc(CNC(=O)c2cc3cc(F)ccc3n2Cc2cccc(C(=N)N)c2)cc1.O=C(O)C(F)(F)F.O=C(O)C(F)(F)F | 90 °C (dec.) |
| CC[N+](C)(C)c1ccc(CNC(=O)c2cc3cc(F)ccc3n2Cc2cccc(C(=N)N)c2)cc1.O=C(O)C(F)(F)F.O=C([O-])C(F)(F)F | 73 to 75 °C (dec.) |
| C[N+](C)(C)c1ccc(CNC(=O)c2cc3c(OCc4ccccc4)cccc3n2Cc2cccc(C(=N)N)c2)cc1.[I-] [Example 68, [4-({[1-(3-Amidino-benzyl)-4-benzyloxy-1H-indole-2-carbonyl]-amino}-methyl)-phenyl]-trimethyl-ammonium iodide hydroiodide] | 158 °C (dec.) |
| C[N+](C)(C)c1ccc(CNC(=O)c2cn(Cc3cccc(C(=N)N)c3)c3ccccc23)cc1.O=C(O)C(F)(F)F.O=C([O-])C(F)(F)F | 177 °C (dec.) |
| N=C(N)c1cccc(CNC(=O)Cc2cn(Cc3cccc(C(=N)N)c3)c3ccccc23)c1.O=C(O)C(F)(F)F.O=C(O)C(F)(F)F | 196 °C (dec.) |
| CC(=O)O.CC(=O)O.N=C(N)c1cccc(COC(=O)c2cc3cc(OCc4ccccc4)ccc3n2Cc2cccc(C(=N)N)c2)c1 | 147 °C (dec.) |
| CC(=O)O.N=C(N)c1cccc(Cn2c(C(=O)NCc3ccccc3)cc3ccccc32)c1 | 266 to 268 °C (dec.) |
| CC(=O)O.CC(=O)[O-].C[N+](C)(C)c1ccc(CNC(=O)c2cc3cc(F)ccc3n2Cc2cccc(C3=NCCN3)c2)cc1 | 51 °C (dec.) |
| N=C(N)c1cccc(CNC(=O)c2cc3cc(OCc4ccccc4)ccc3n2Cc2cccc(C(=N)N)c2)c1 (as salt: hydroiodid) [Example 59, 1-(3-Amidino-benzyl)-5-benzyloxy-1H-indole-2-carboxylic acid 3-amidino-benzylamide dihydroiodide] | 138 °C (dec.) |
| COc1cccc2c1cc(C(=O)NCc1ccc(O)cc1)n2Cc1cccc(C(=N)N)c1.Cl | 202 °C (dec.) |
| Cc1cc(CNC(=O)c2cc3c(O)cccc3n2Cc2cccc(C(=N)N)c2)cc(C(F)(F)F)c1 (as salt: trifluoroacetic acid salt) [Example 112] | 126 °C |
| CN(C)c1ccc(CNC(=O)c2cn(Cc3cccc(C(=N)N)c3)c3ccccc23)cc1.O=C(O)C(F)(F)F.O=C(O)C(F)(F)F | 92 to 96 °C |
| N=C(N)c1cccc(CNC(=O)c2c(Cl)c3ccccc3n2Cc2cccc(C(=N)N)c2)c1 (as salt: trifluoroacetic acid salt) [Example 115] | 227 °C |
| CC(=O)O.CC(=O)[O-].C[N+](C)(C)c1ccc(CNC(=O)c2cc3cc(Br)ccc3n2Cc2cccc(C(=N)N)c2)cc1 | 86 °C (dec.) |
| CC(=O)O.CCOC(=O)c1cc2c(C)cccc2n1Cc1cccc(C(=N)N)c1 | 187 °C (dec.) |
| C[N+](C)(C)c1ccc(CNC(=O)c2c(Cl)c3ccccc3n2Cc2cccc(C(=N)N)c2)cc1 (as salt: trifluoroacetic acid salt) [Example 106] | 57 °C |
